Assay results: patent publication US11000033B2, “Ketone or oxime compound, and herbicide” (NISSAN CHEMICAL CORPORATION, priority 2014, dated 2021)

What was measured:
Type in all cases: in vivo
Apera spica-venti = experiment: Test Example 4: herbicidal effect by soil treatment (symbol L); conditions: application herbicide amount 320 g/ha
Method in brief: (§1)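 Seeds were sown in sterilized diluvial soil, covered with about 1.5 cm of soil, and the soil surface was sprayed with a water-diluted emulsion of the compound at a predetermined rate. Plants grew in a greenhouse at 25° C. to 30° C.; effects were scored visually 3 weeks after application.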

Abutilon theophrasti = experiment: Test Example 5: herbicidal effect by foliage application, plastic box (symbol M); conditions: 320 g/ha, 3 weeks after application
Method in brief: (§2)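 Seeds were sown in sterilized diluvial soil, covered with about 1.5 cm of soil and grown 14 days in a greenhouse at 25° C. to 30° C. An emulsifiable formulation diluted in water to a set rate was sprayed over foliage, and injury was scored 3 weeks later.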

soybean [1] = experiment: Test Example 5: effect on crop by foliage application, plastic box (symbol d); conditions: 320 g/ha, 3 weeks after application
Method in brief: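 Greenhouse test at 25° C. to 30° C. Seeds of crops and weeds were spot-sown in boxes of sterilized diluvial soil under roughly 1.5 cm soil cover, then grown for foliage treatment.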

Scirpus juncoides = experiment: Test Example 1: herbicidal activity, application before weed generation in submerged conditions (symbol B); conditions: application herbicide amount 320 g/ha
Method in brief: (§3)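 0–5 visual score, 3 wk post-application. Submerged pots, alluvial soil, water 4 cm; seeds sown mixed, rice at 2.5 leaves transplanted. Emulsion diluted to predetermined dose, applied to water surface at sowing. 25–30 °C greenhouse.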

Lolium multiflorum Lam. = experiment: Test Example 4: herbicidal effect by soil treatment (symbol K); conditions: application herbicide amount 320 g/ha
Method in brief: as §1

Avena fatua = experiment: Test Example 4: herbicidal effect by soil treatment (symbol I); conditions: application herbicide amount 320 g/ha
Method in brief: as §1

Monochoria vaginalis = experiment: Test Example 1: herbicidal activity, application before weed generation in submerged conditions (symbol C); conditions: application herbicide amount 320 g/ha
Method in brief: as §3

[2] = system: Echinochloa crus-galli var. crus-galli; experiment: Test Example 5: herbicidal effect by foliage application, plastic box (symbol H); conditions: 320 g/ha, 3 weeks after application
Method in brief: as §2

soybean [3] = experiment: Test Example 4: effect on crop by soil treatment (symbol d); conditions: application herbicide amount 320 g/ha
Method in brief: (§4)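 The test used sterilized diluvial soil. Seed was set down in spots and overlaid with about 1.5 cm of soil before growth in a greenhouse kept at 25° C. to 30° C.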

Setaria viridis [4] = experiment: Test Example 4: herbicidal effect by soil treatment (symbol G); conditions: application herbicide amount 320 g/ha
Method in brief: as §1

Setaria viridis [5] = experiment: Test Example 5: herbicidal effect by foliage application, plastic box (symbol G); conditions: 320 g/ha, 3 weeks after application
Method in brief: as §2

[6] = system: Echinochloa crus-galli var. crus-galli; experiment: Test Example 3: herbicidal effect by foliage application, Wagner pot (symbol H); conditions: application herbicide amount 320 g/ha
Method in brief: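 Foliar spray of a water-diluted emulsion at a predetermined herbicide amount, applied to 14-day-old plants. Seedlings were raised in flooded alluvial soil (0.1–0.5 cm water) at 25–30 °C in a greenhouse. Injury was rated after 3 weeks against fixed criteria.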

Chenopodium album = experiment: Test Example 5: herbicidal effect by foliage application, plastic box (symbol O); conditions: 320 g/ha, 3 weeks after application
Method in brief: as §2

Amaranthus retroflexus [7] = experiment: Test Example 5: herbicidal effect by foliage application, plastic box (symbol N); conditions: 320 g/ha, 3 weeks after application
Method in brief: as §2

wheat = experiment: Test Example 4: effect on crop by soil treatment (symbol e); conditions: application herbicide amount 320 g/ha
Method in brief: as §4

Amaranthus retroflexus [8] = experiment: Test Example 4: herbicidal effect by soil treatment (symbol N); conditions: application herbicide amount 320 g/ha
Method in brief: as §1

beet = experiment: Test Example 4: effect on crop by soil treatment (symbol f); conditions: application herbicide amount 320 g/ha
Method in brief: as §4

CON=C(C)CC1CC(OC(=O)OC)=C(c2c(C)cc(C)cc2C)C1=O (stereo not drawn) [1-014]
L (Apera spica-venti) herbicidal effect grade (Apera spica-venti): 5 (Herbicidal ratio of 90% or more (almost completely withered)) | M: Abutilon theophrasti, herbicidal effect grade (Abutilon theophrasti): 5 (Herbicidal ratio of 90% or more (almost completely withered)) | d: soybean, effect on crop grade (soybean [1]): 5 (Herbicidal ratio of 90% or more (almost completely withered)) | Herbicidal effect grade, B: Scirpus juncoides (Scirpus juncoides): 5 (Herbicidal ratio of 90% or more (almost completely withered)) | K (Lolium multiflorum Lam.) herbicidal effect grade (Lolium multiflorum Lam.): 5 (Herbicidal ratio of 90% or more (almost completely withered)) | I (Avena fatua) herbicidal effect grade (Avena fatua): 5 (Herbicidal ratio of 90% or more (almost completely withered)) | Herbicidal effect grade, C: Monochoria vaginalis (Monochoria vaginalis): 2 (Herbicidal ratio of 20% or higher and lower than 40%) | H: Echinochloa crus-galli var. crus-galli, herbicidal effect grade [2]: 5 (Herbicidal ratio of 90% or more (almost completely withered)) | d (soybean) effect on crop grade (soybean [3]): 4 (Herbicidal ratio of 70% or higher and lower than 90%) | G (Setaria viridis) herbicidal effect grade (Setaria viridis [4]): 3 (Herbicidal ratio of 40% or higher and lower than 70%) | G: Setaria viridis, herbicidal effect grade (Setaria viridis [5]): 5 (Herbicidal ratio of 90% or more (almost completely withered)) | herbicidal effect on H (Echinochloa crus-galli var. crus-galli), grade 0-5 [6]: 5 (Herbicidal ratio of 90% or more (almost completely withered)) | O: Chenopodium album, herbicidal effect grade (Chenopodium album): 3 (Herbicidal ratio of 40% or higher and lower than 70%) | N: Amaranthus retroflexus, herbicidal effect grade (Amaranthus retroflexus [7]): 5 (Herbicidal ratio of 90% or more (almost completely withered))

C=Cc1cc(C)c(C2=C(O)CC(CC(C)=NOC)C2=O)c(C)c1 (mixture of isomers) [6-031]
L: Apera spica-venti, herbicidal effect grade (Apera spica-venti): 0 (Herbicidal ratio of 5% or lower (almost no effect)) | M: Abutilon theophrasti, herbicidal effect grade (Abutilon theophrasti): 2 (Herbicidal ratio of 20% or higher and lower than 40%) | d: soybean, effect on crop grade (soybean [1]): 0 (Herbicidal ratio of 5% or lower (almost no effect)) | Herbicidal effect grade, B: Scirpus juncoides (Scirpus juncoides): 0 (Herbicidal ratio of 5% or lower (almost no effect)) | e: wheat, effect on crop grade (wheat): 0 (Herbicidal ratio of 5% or lower (almost no effect)) | K: Lolium multiflorum Lam., herbicidal effect grade (Lolium multiflorum Lam.): 3 (Herbicidal ratio of 40% or higher and lower than 70%) | I: Avena fatua, herbicidal effect grade (Avena fatua): 0 (Herbicidal ratio of 5% or lower (almost no effect)) | Herbicidal effect grade, C: Monochoria vaginalis (Monochoria vaginalis): 0 (Herbicidal ratio of 5% or lower (almost no effect)) | H: Echinochloa crus-galli var. crus-galli, herbicidal effect grade [2]: 5 (Herbicidal ratio of 90% or more (almost completely withered)) | d: soybean, effect on crop grade (soybean [3]): 0 (Herbicidal ratio of 5% or lower (almost no effect)) | G: Setaria viridis, herbicidal effect grade (Setaria viridis [4]): 0 (Herbicidal ratio of 5% or lower (almost no effect)) | G: Setaria viridis, herbicidal effect grade (Setaria viridis [5]): 5 (Herbicidal ratio of 90% or more (almost completely withered)) | herbicidal effect on H (Echinochloa crus-galli var. crus-galli), grade 0-5 [6]: 3 (Herbicidal ratio of 40% or higher and lower than 70%) | O: Chenopodium album, herbicidal effect grade (Chenopodium album): 3 (Herbicidal ratio of 40% or higher and lower than 70%) | N: Amaranthus retroflexus, herbicidal effect grade (Amaranthus retroflexus [8]): 4 (Herbicidal ratio of 70% or higher and lower than 90%) | N: Amaranthus retroflexus, herbicidal effect grade (Amaranthus retroflexus [7]): 0 (Herbicidal ratio of 5% or lower (almost no effect)) | f: beet, effect on crop grade (beet): 0 (Herbicidal ratio of 5% or lower (almost no effect))

CCCC(=O)C(C(=O)OC)C1CC(O)=C(c2c(C)cc(C)cc2C)C1=O (stereo not drawn) [2-020]
L: Apera spica-venti, herbicidal effect grade (Apera spica-venti): 0 (Herbicidal ratio of 5% or lower (almost no effect)) | M: Abutilon theophrasti, herbicidal effect grade (Abutilon theophrasti): 0 (Herbicidal ratio of 5% or lower (almost no effect)) | d: soybean, effect on crop grade (soybean [1]): 0 (Herbicidal ratio of 5% or lower (almost no effect)) | Herbicidal effect grade, B: Scirpus juncoides (Scirpus juncoides): 0 (Herbicidal ratio of 5% or lower (almost no effect)) | e: wheat, effect on crop grade (wheat): 0 (Herbicidal ratio of 5% or lower (almost no effect)) | K: Lolium multiflorum Lam., herbicidal effect grade (Lolium multiflorum Lam.): 4 (Herbicidal ratio of 70% or higher and lower than 90%) | I: Avena fatua, herbicidal effect grade (Avena fatua): 0 (Herbicidal ratio of 5% or lower (almost no effect)) | Herbicidal effect grade, C: Monochoria vaginalis (Monochoria vaginalis): 0 (Herbicidal ratio of 5% or lower (almost no effect)) | H: Echinochloa crus-galli var. crus-galli, herbicidal effect grade [2]: 4 (Herbicidal ratio of 70% or higher and lower than 90%) | d: soybean, effect on crop grade (soybean [3]): 0 (Herbicidal ratio of 5% or lower (almost no effect)) | G: Setaria viridis, herbicidal effect grade (Setaria viridis [4]): 5 (Herbicidal ratio of 90% or more (almost completely withered)) | G: Setaria viridis, herbicidal effect grade (Setaria viridis [5]): 5 (Herbicidal ratio of 90% or more (almost completely withered)) | herbicidal effect on H (Echinochloa crus-galli var. crus-galli), grade 0-5 [6]: 2 (Herbicidal ratio of 20% or higher and lower than 40%) | O: Chenopodium album, herbicidal effect grade (Chenopodium album): 0 (Herbicidal ratio of 5% or lower (almost no effect)) | N: Amaranthus retroflexus, herbicidal effect grade (Amaranthus retroflexus [8]): 1 (Herbicidal ratio of 5% or higher and lower than 20%) | N: Amaranthus retroflexus, herbicidal effect grade (Amaranthus retroflexus [7]): 0 (Herbicidal ratio of 5% or lower (almost no effect)) | f: beet, effect on crop grade (beet): 0 (Herbicidal ratio of 5% or lower (almost no effect))

CON=C(C)CC1CC(OCCSC)=C(c2c(C)cc(C)cc2C)C1=O (stereo not drawn) [1-011]
L (Apera spica-venti) herbicidal effect grade (Apera spica-venti): 0 (Herbicidal ratio of 5% or lower (almost no effect)) | M: Abutilon theophrasti, herbicidal effect grade (Abutilon theophrasti): 0 (Herbicidal ratio of 5% or lower (almost no effect)) | d: soybean, effect on crop grade (soybean [1]): 0 (Herbicidal ratio of 5% or lower (almost no effect)) | Herbicidal effect grade, B: Scirpus juncoides (Scirpus juncoides): 0 (Herbicidal ratio of 5% or lower (almost no effect)) | e (wheat) effect on crop grade (wheat): 0 (Herbicidal ratio of 5% or lower (almost no effect)) | K (Lolium multiflorum Lam.) herbicidal effect grade (Lolium multiflorum Lam.): 0 (Herbicidal ratio of 5% or lower (almost no effect)) | I (Avena fatua) herbicidal effect grade (Avena fatua): 0 (Herbicidal ratio of 5% or lower (almost no effect)) | Herbicidal effect grade, C: Monochoria vaginalis (Monochoria vaginalis): 0 (Herbicidal ratio of 5% or lower (almost no effect)) | H: Echinochloa crus-galli var. crus-galli, herbicidal effect grade [2]: 0 (Herbicidal ratio of 5% or lower (almost no effect)) | d (soybean) effect on crop grade (soybean [3]): 0 (Herbicidal ratio of 5% or lower (almost no effect)) | G (Setaria viridis) herbicidal effect grade (Setaria viridis [4]): 0 (Herbicidal ratio of 5% or lower (almost no effect)) | G: Setaria viridis, herbicidal effect grade (Setaria viridis [5]): 0 (Herbicidal ratio of 5% or lower (almost no effect)) | herbicidal effect on H (Echinochloa crus-galli var. crus-galli), grade 0-5 [6]: 0 (Herbicidal ratio of 5% or lower (almost no effect)) | O: Chenopodium album, herbicidal effect grade (Chenopodium album): 0 (Herbicidal ratio of 5% or lower (almost no effect)) | N (Amaranthus retroflexus) herbicidal effect grade (Amaranthus retroflexus [8]): 0 (Herbicidal ratio of 5% or lower (almost no effect)) | N: Amaranthus retroflexus, herbicidal effect grade (Amaranthus retroflexus [7]): 0 (Herbicidal ratio of 5% or lower (almost no effect)) | f (beet) effect on crop grade (beet): 0 (Herbicidal ratio of 5% or lower (almost no effect))

CON=C(C)CC1CC(OCC#N)=C(c2c(C)cc(C)cc2C)C1=O (stereo not drawn) [1-013]
M: Abutilon theophrasti, herbicidal effect grade (Abutilon theophrasti): 0 (Herbicidal ratio of 5% or lower (almost no effect)) | d: soybean, effect on crop grade (soybean [1]): 0 (Herbicidal ratio of 5% or lower (almost no effect)) | Herbicidal effect grade, B: Scirpus juncoides (Scirpus juncoides): 0 (Herbicidal ratio of 5% or lower (almost no effect)) | e (wheat) effect on crop grade (wheat): 0 (Herbicidal ratio of 5% or lower (almost no effect)) | K (Lolium multiflorum Lam.) herbicidal effect grade (Lolium multiflorum Lam.): 0 (Herbicidal ratio of 5% or lower (almost no effect)) | I (Avena fatua) herbicidal effect grade (Avena fatua): 0 (Herbicidal ratio of 5% or lower (almost no effect)) | Herbicidal effect grade, C: Monochoria vaginalis (Monochoria vaginalis): 0 (Herbicidal ratio of 5% or lower (almost no effect)) | H: Echinochloa crus-galli var. crus-galli, herbicidal effect grade [2]: 0 (Herbicidal ratio of 5% or lower (almost no effect)) | d (soybean) effect on crop grade (soybean [3]): 0 (Herbicidal ratio of 5% or lower (almost no effect)) | G (Setaria viridis) herbicidal effect grade (Setaria viridis [4]): 0 (Herbicidal ratio of 5% or lower (almost no effect)) | G: Setaria viridis, herbicidal effect grade (Setaria viridis [5]): 0 (Herbicidal ratio of 5% or lower (almost no effect)) | herbicidal effect on H (Echinochloa crus-galli var. crus-galli), grade 0-5 [6]: 0 (Herbicidal ratio of 5% or lower (almost no effect)) | O: Chenopodium album, herbicidal effect grade (Chenopodium album): 0 (Herbicidal ratio of 5% or lower (almost no effect)) | N (Amaranthus retroflexus) herbicidal effect grade (Amaranthus retroflexus [8]): 0 (Herbicidal ratio of 5% or lower (almost no effect)) | N: Amaranthus retroflexus, herbicidal effect grade (Amaranthus retroflexus [7]): 0 (Herbicidal ratio of 5% or lower (almost no effect)) | f (beet) effect on crop grade (beet): 0 (Herbicidal ratio of 5% or lower (almost no effect))
